Target: human recombinant P2X7 receptor (Homo sapiens (Human), UniProt Q99572)
Assay: YO-PRO1 assay, P2X7 receptor antagonistic activity

Sequence of human recombinant P2X7 receptor (Q99572 whole entry): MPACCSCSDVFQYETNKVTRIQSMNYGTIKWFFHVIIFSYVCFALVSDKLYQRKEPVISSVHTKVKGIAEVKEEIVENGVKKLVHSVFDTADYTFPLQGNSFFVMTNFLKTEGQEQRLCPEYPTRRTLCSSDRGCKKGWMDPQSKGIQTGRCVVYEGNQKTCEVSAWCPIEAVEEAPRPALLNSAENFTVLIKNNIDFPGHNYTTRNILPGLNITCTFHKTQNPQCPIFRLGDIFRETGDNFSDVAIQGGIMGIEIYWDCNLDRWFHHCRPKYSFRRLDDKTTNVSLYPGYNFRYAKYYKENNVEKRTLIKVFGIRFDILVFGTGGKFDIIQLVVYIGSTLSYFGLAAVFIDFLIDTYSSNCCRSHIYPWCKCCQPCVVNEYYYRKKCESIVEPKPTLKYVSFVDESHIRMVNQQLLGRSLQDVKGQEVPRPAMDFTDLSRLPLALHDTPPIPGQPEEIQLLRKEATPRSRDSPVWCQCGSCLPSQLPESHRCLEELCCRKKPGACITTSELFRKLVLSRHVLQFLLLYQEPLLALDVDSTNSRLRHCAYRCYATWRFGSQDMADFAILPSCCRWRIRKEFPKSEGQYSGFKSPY

Structure (SMILES)	IC50 [µM]
CC(O)c1cc(C(=O)NCC2(O)CCC(F)(F)CC2)c(Cl)c2cc[nH]c12 (racemic) [Example 67, rac-4-Chloro-7-(1-hydroxy-ethyl)-1H-indole-5-carboxylic acid (4,4-difluoro-1-hydroxy-cyclohexylmethyl)-amide]	0.0047
O=C(NC(CO)C1CCCCCC1)c1ccc2[nH]ccc2c1Cl (racemic) [Example 10, rac-4-Chloro-1H-indole-5-carboxylic acid (1-cycloheptyl-2-hydroxy-ethyl)-amide]	0.057

Source: patent US9556117B2, “Indole carboxamide derivatives as P2X7 receptor antagonists” (ACTELION PHARMACEUTICALS LTD, priority 2012, dated 2017)
